Assay results as given in ChEMBL document CHEMBL1126601, “Synthesis of a photoaffinity analog of taxol as an approach to identify the taxol binding site on microtubules” (J Med Chem, 1993).
pEC50, pKi: −log10 of the molar value.

Legend:
J774 = test: Drug concentration that inhibits cell division by 50% after 72 hr incubation for murine like macrophage cell line J774.2; type: functional; settings: Mus musculus, J774, 72 h; read-out: ED50 (the source's name)
Mus musculus = organism: Mus musculus; test: Ability to inhibit binding of [3H]taxol was determined; type: functional

**Q.** How did the pEC50 (J774) turn out when `CC(=O)O[C@H]1C(=O)[C@@]2(C)C([C@H](CC(=O)c3ccccc3)[C@]3(O)C[C@H](OC(=O)[C@H](O)C(NC(=O)c4ccccc4)c4ccccc4)C(C)=C1C3(C)C)[C@]1(OC(C)=O)CO[C@@H]1C[C@@H]2O` (some centres not stated) was run?
**A.** 7.30

**Q.** And the pKi (Mus musculus)?
**A.** 5.70
